The molecules below were run against MAPK9 (human) (UniProt P45984) (assay: radiometric filter-binding kinase assay, Kinase HotSpot). Conditions: compound 0.5 µM; ATP 10 µM.
`NC(=O)c1ccc(N(C(N)=O)c2c(F)cccc2F)nc1-c1ccc(F)cc1F` gave a residual activity of 93.5%.
`O=c1cc(-c2cccc3c2Sc2ccccc2S3)oc(N2CCOCC2)c1` was tested, and the residual activity was 97.7%.
For `Nc1nc(Nc2ccc(S(N)(=O)=O)cc2)nn1C(=S)Nc1c(F)cccc1F`, the residual activity was 80.9%.
For `O=C1Cc2c([nH]c3ccc([N+](=O)[O-])cc23)-c2ccccc2N1`, the residual activity was 97.2%.

The molecules below were run against TNK2 (human) (UniProt Q07912) in the same assay as above. Conditions: compound 0.5 µM; ATP 10 µM.
Molecule `NC(=O)c1ccc(N(C(N)=O)c2c(F)cccc2F)nc1-c1ccc(F)cc1F` has a residual activity of 96.1%.
In the case of `O=c1cc(-c2cccc3c2Sc2ccccc2S3)oc(N2CCOCC2)c1`, the residual activity is reported as 95.7%.
Work on `Nc1nc(Nc2ccc(S(N)(=O)=O)cc2)nn1C(=S)Nc1c(F)cccc1F` yielded a residual activity of 6.41%.
`O=C1Cc2c([nH]c3ccc([N+](=O)[O-])cc23)-c2ccccc2N1` was tested, and the residual activity was 74.9%.

These molecules were tested against TAOK3 (human) (UniProt Q9H2K8) in the same assay as above. Conditions: compound 0.5 µM; ATP 10 µM.
Work on `NC(=O)c1ccc(N(C(N)=O)c2c(F)cccc2F)nc1-c1ccc(F)cc1F` yielded a residual activity of 95.7%.
In the case of `O=c1cc(-c2cccc3c2Sc2ccccc2S3)oc(N2CCOCC2)c1`, the residual activity is reported as 115%.
Molecule `Nc1nc(Nc2ccc(S(N)(=O)=O)cc2)nn1C(=S)Nc1c(F)cccc1F` has a residual activity of 10%.
Work on `O=C1Cc2c([nH]c3ccc([N+](=O)[O-])cc23)-c2ccccc2N1` yielded a residual activity of 76.7%.

What follows are molecules tested against PAK2 (human) (UniProt Q13177) in the same assay as above. Conditions: compound 0.5 µM; ATP 10 µM.
`NC(=O)c1ccc(N(C(N)=O)c2c(F)cccc2F)nc1-c1ccc(F)cc1F` was tested, and the residual activity was 101%.
Work on `O=c1cc(-c2cccc3c2Sc2ccccc2S3)oc(N2CCOCC2)c1` yielded a residual activity of 100%.
`Nc1nc(Nc2ccc(S(N)(=O)=O)cc2)nn1C(=S)Nc1c(F)cccc1F` was tested, and the residual activity was 26.4%.
With `O=C1Cc2c([nH]c3ccc([N+](=O)[O-])cc23)-c2ccccc2N1` the residual activity was 41%.

What follows are molecules tested against HIPK1 (human) (UniProt Q86Z02) in the same assay as above. Conditions: compound 0.5 µM; ATP 10 µM.
`NC(=O)c1ccc(N(C(N)=O)c2c(F)cccc2F)nc1-c1ccc(F)cc1F` was tested, and the residual activity was 100%.
`O=c1cc(-c2cccc3c2Sc2ccccc2S3)oc(N2CCOCC2)c1` was tested, and the residual activity was 99.6%.
Work on `Nc1nc(Nc2ccc(S(N)(=O)=O)cc2)nn1C(=S)Nc1c(F)cccc1F` yielded a residual activity of 105%.
In the case of `O=C1Cc2c([nH]c3ccc([N+](=O)[O-])cc23)-c2ccccc2N1`, the residual activity is reported as 98.5%.

The molecules below were run against NEK2 (human) (UniProt P51955) in the same assay as above. Conditions: compound 0.5 µM; ATP 10 µM.
`NC(=O)c1ccc(N(C(N)=O)c2c(F)cccc2F)nc1-c1ccc(F)cc1F` was tested, and the residual activity was 109%.
`O=c1cc(-c2cccc3c2Sc2ccccc2S3)oc(N2CCOCC2)c1` showed a residual activity of 103%.
For `Nc1nc(Nc2ccc(S(N)(=O)=O)cc2)nn1C(=S)Nc1c(F)cccc1F`, the residual activity was 98.3%.
`O=C1Cc2c([nH]c3ccc([N+](=O)[O-])cc23)-c2ccccc2N1` gave a residual activity of 92.4%.

Each molecule was assayed against IKBKB (human) (UniProt O14920) in the same assay as above. Conditions: compound 0.5 µM; ATP 10 µM.
`NC(=O)c1ccc(N(C(N)=O)c2c(F)cccc2F)nc1-c1ccc(F)cc1F` gave a residual activity of 94.8%.
Work on `O=c1cc(-c2cccc3c2Sc2ccccc2S3)oc(N2CCOCC2)c1` yielded a residual activity of 101%.
`Nc1nc(Nc2ccc(S(N)(=O)=O)cc2)nn1C(=S)Nc1c(F)cccc1F` gave a residual activity of 49.3%.
Molecule `O=C1Cc2c([nH]c3ccc([N+](=O)[O-])cc23)-c2ccccc2N1` has a residual activity of 102%.

These molecules were tested against LRRK2 (human) (UniProt Q5S007) in the same assay as above. Conditions: compound 0.5 µM; ATP 10 µM.
LRRK2 (human), sequence (Q5S007 whole entry, looked up): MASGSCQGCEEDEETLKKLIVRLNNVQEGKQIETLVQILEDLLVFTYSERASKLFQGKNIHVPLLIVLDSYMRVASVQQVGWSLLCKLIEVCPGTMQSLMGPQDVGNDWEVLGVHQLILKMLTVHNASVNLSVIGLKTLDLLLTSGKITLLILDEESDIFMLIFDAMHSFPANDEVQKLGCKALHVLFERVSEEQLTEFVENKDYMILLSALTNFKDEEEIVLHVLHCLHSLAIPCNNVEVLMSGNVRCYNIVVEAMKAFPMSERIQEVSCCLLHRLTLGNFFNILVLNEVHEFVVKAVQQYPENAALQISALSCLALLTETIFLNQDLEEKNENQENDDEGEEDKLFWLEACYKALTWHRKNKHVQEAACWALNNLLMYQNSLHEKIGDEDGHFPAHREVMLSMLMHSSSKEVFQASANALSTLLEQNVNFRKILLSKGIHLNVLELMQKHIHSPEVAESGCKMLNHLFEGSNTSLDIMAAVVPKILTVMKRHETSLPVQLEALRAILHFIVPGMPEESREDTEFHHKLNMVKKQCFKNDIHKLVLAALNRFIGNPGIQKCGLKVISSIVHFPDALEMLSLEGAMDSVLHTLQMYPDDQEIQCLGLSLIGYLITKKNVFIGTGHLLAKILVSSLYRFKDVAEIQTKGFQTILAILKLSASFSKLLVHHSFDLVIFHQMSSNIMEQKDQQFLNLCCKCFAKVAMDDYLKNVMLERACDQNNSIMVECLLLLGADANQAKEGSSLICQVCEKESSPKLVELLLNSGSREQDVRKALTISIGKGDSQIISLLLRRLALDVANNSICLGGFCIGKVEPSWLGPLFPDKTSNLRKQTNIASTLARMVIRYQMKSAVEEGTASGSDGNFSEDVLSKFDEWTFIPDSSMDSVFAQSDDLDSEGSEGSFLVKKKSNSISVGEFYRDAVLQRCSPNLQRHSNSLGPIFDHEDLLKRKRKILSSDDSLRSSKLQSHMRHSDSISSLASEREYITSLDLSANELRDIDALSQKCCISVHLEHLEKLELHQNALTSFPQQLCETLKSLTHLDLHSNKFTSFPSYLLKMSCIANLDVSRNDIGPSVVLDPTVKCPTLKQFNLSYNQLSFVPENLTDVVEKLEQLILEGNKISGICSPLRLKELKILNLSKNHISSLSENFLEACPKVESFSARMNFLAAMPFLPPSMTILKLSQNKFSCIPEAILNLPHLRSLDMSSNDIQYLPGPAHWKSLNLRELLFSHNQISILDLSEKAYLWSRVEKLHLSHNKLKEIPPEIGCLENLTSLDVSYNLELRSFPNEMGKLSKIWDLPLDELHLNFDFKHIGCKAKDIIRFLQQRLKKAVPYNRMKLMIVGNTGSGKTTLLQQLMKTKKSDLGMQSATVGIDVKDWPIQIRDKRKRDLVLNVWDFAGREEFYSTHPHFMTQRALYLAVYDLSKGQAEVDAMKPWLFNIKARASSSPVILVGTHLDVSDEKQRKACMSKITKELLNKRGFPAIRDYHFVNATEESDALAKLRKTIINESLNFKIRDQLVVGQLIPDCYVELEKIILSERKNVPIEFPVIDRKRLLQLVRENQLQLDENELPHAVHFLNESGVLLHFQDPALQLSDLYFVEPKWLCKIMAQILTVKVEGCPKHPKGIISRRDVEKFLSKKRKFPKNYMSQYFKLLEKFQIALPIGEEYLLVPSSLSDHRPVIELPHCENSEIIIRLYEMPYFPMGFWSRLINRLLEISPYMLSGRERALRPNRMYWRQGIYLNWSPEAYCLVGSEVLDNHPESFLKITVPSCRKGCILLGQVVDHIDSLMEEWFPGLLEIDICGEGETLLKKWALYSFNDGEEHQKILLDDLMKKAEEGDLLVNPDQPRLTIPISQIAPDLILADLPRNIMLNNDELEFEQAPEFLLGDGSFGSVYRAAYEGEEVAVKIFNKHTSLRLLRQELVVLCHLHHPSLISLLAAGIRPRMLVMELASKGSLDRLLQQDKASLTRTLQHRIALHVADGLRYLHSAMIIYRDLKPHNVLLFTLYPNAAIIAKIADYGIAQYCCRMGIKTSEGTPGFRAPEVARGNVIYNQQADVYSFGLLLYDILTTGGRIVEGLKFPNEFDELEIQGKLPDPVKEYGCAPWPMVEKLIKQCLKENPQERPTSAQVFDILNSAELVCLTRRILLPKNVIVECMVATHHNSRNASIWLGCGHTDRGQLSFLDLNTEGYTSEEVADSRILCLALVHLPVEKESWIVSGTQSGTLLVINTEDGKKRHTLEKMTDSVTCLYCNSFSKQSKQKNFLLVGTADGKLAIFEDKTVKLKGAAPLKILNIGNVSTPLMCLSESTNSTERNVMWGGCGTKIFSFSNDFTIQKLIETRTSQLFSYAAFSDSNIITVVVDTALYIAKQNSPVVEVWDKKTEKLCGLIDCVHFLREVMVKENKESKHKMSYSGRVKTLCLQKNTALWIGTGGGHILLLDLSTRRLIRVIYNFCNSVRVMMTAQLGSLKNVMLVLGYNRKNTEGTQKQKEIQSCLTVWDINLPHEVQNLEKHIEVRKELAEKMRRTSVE
Molecule `NC(=O)c1ccc(N(C(N)=O)c2c(F)cccc2F)nc1-c1ccc(F)cc1F` has a residual activity of 82%.
`O=c1cc(-c2cccc3c2Sc2ccccc2S3)oc(N2CCOCC2)c1` showed a residual activity of 102%.
In the case of `Nc1nc(Nc2ccc(S(N)(=O)=O)cc2)nn1C(=S)Nc1c(F)cccc1F`, the residual activity is reported as 1.33%.
With `O=C1Cc2c([nH]c3ccc([N+](=O)[O-])cc23)-c2ccccc2N1` the residual activity was 96.5%.

What follows are molecules tested against CLK4 (human) (UniProt Q9HAZ1) in the same assay as above. Conditions: compound 0.5 µM; ATP 10 µM.
Molecule `NC(=O)c1ccc(N(C(N)=O)c2c(F)cccc2F)nc1-c1ccc(F)cc1F` has a residual activity of 114%.
`O=c1cc(-c2cccc3c2Sc2ccccc2S3)oc(N2CCOCC2)c1` showed a residual activity of 101%.
In the case of `Nc1nc(Nc2ccc(S(N)(=O)=O)cc2)nn1C(=S)Nc1c(F)cccc1F`, the residual activity is reported as 1.92%.
`O=C1Cc2c([nH]c3ccc([N+](=O)[O-])cc23)-c2ccccc2N1` was tested, and the residual activity was 86.4%.

The molecules below were run against BRSK1 (human) (UniProt Q8TDC3) in the same assay as above. Conditions: compound 0.5 µM; ATP 10 µM.
BRSK1 (human), sequence (Q8TDC3 whole entry, looked up): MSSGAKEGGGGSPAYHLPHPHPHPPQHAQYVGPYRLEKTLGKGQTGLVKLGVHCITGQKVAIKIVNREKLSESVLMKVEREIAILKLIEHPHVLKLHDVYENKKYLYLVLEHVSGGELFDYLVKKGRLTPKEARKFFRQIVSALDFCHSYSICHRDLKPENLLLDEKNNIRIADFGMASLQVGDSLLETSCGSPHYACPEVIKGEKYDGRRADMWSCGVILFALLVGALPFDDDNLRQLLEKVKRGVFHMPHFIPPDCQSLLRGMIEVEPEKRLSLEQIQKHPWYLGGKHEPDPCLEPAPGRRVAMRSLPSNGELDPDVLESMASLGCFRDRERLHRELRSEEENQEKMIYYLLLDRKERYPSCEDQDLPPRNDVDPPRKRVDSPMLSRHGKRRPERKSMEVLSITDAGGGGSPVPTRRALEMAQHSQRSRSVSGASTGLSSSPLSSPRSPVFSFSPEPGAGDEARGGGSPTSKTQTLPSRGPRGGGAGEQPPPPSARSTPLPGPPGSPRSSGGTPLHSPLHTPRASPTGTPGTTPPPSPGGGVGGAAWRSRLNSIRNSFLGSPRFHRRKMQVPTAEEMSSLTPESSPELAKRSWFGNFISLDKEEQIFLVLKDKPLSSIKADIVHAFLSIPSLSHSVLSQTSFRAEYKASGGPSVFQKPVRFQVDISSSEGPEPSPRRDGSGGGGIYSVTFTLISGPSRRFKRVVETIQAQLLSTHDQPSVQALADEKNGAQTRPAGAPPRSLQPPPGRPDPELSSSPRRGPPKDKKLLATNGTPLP
Work on `NC(=O)c1ccc(N(C(N)=O)c2c(F)cccc2F)nc1-c1ccc(F)cc1F` yielded a residual activity of 94.2%.
Work on `O=c1cc(-c2cccc3c2Sc2ccccc2S3)oc(N2CCOCC2)c1` yielded a residual activity of 98.2%.
`Nc1nc(Nc2ccc(S(N)(=O)=O)cc2)nn1C(=S)Nc1c(F)cccc1F` gave a residual activity of 2.61%.
For `O=C1Cc2c([nH]c3ccc([N+](=O)[O-])cc23)-c2ccccc2N1`, the residual activity was 39.7%.

What follows are molecules tested against PAK3 (human) (UniProt O75914) in the same assay as above. Conditions: compound 0.5 µM; ATP 10 µM.
With `NC(=O)c1ccc(N(C(N)=O)c2c(F)cccc2F)nc1-c1ccc(F)cc1F` the residual activity was 98.3%.
For `O=c1cc(-c2cccc3c2Sc2ccccc2S3)oc(N2CCOCC2)c1`, the residual activity was 95%.
Molecule `Nc1nc(Nc2ccc(S(N)(=O)=O)cc2)nn1C(=S)Nc1c(F)cccc1F` has a residual activity of 35.4%.
For `O=C1Cc2c([nH]c3ccc([N+](=O)[O-])cc23)-c2ccccc2N1`, the residual activity was 80.4%.

Each molecule was assayed against CSNK1G1 (human) (UniProt Q9HCP0) in the same assay as above. Conditions: compound 0.5 µM; ATP 10 µM.
For `NC(=O)c1ccc(N(C(N)=O)c2c(F)cccc2F)nc1-c1ccc(F)cc1F`, the residual activity was 102%.
For `O=c1cc(-c2cccc3c2Sc2ccccc2S3)oc(N2CCOCC2)c1`, the residual activity was 99.3%.
In the case of `Nc1nc(Nc2ccc(S(N)(=O)=O)cc2)nn1C(=S)Nc1c(F)cccc1F`, the residual activity is reported as 16.7%.
Work on `O=C1Cc2c([nH]c3ccc([N+](=O)[O-])cc23)-c2ccccc2N1` yielded a residual activity of 100%.

What follows are molecules tested against DYRK1B (human) (UniProt Q9Y463) in the same assay as above. Conditions: compound 0.5 µM; ATP 10 µM.
In the case of `NC(=O)c1ccc(N(C(N)=O)c2c(F)cccc2F)nc1-c1ccc(F)cc1F`, the residual activity is reported as 97.1%.
In the case of `O=c1cc(-c2cccc3c2Sc2ccccc2S3)oc(N2CCOCC2)c1`, the residual activity is reported as 101%.
`Nc1nc(Nc2ccc(S(N)(=O)=O)cc2)nn1C(=S)Nc1c(F)cccc1F` was tested, and the residual activity was 14.1%.
Molecule `O=C1Cc2c([nH]c3ccc([N+](=O)[O-])cc23)-c2ccccc2N1` has a residual activity of 87.5%.

These molecules were tested against WEE1 (human) (UniProt P30291) in the same assay as above. Conditions: compound 0.5 µM; ATP 10 µM.
With `NC(=O)c1ccc(N(C(N)=O)c2c(F)cccc2F)nc1-c1ccc(F)cc1F` the residual activity was 101%.
With `O=c1cc(-c2cccc3c2Sc2ccccc2S3)oc(N2CCOCC2)c1` the residual activity was 98.3%.
With `Nc1nc(Nc2ccc(S(N)(=O)=O)cc2)nn1C(=S)Nc1c(F)cccc1F` the residual activity was 100%.
`O=C1Cc2c([nH]c3ccc([N+](=O)[O-])cc23)-c2ccccc2N1` gave a residual activity of 98.2%.

What follows are molecules tested against NTRK3 (human) (UniProt Q16288) in the same assay as above. Conditions: compound 0.5 µM; ATP 10 µM.
`NC(=O)c1ccc(N(C(N)=O)c2c(F)cccc2F)nc1-c1ccc(F)cc1F` showed a residual activity of 95.9%.
`O=c1cc(-c2cccc3c2Sc2ccccc2S3)oc(N2CCOCC2)c1` gave a residual activity of 99.7%.
In the case of `Nc1nc(Nc2ccc(S(N)(=O)=O)cc2)nn1C(=S)Nc1c(F)cccc1F`, the residual activity is reported as 3.59%.
For `O=C1Cc2c([nH]c3ccc([N+](=O)[O-])cc23)-c2ccccc2N1`, the residual activity was 63.4%.

The molecules below were run against CDC42BPB (human) (UniProt Q9Y5S2) in the same assay as above. Conditions: compound 0.5 µM; ATP 10 µM.
CDC42BPB (human), sequence (Q9Y5S2 whole entry, looked up): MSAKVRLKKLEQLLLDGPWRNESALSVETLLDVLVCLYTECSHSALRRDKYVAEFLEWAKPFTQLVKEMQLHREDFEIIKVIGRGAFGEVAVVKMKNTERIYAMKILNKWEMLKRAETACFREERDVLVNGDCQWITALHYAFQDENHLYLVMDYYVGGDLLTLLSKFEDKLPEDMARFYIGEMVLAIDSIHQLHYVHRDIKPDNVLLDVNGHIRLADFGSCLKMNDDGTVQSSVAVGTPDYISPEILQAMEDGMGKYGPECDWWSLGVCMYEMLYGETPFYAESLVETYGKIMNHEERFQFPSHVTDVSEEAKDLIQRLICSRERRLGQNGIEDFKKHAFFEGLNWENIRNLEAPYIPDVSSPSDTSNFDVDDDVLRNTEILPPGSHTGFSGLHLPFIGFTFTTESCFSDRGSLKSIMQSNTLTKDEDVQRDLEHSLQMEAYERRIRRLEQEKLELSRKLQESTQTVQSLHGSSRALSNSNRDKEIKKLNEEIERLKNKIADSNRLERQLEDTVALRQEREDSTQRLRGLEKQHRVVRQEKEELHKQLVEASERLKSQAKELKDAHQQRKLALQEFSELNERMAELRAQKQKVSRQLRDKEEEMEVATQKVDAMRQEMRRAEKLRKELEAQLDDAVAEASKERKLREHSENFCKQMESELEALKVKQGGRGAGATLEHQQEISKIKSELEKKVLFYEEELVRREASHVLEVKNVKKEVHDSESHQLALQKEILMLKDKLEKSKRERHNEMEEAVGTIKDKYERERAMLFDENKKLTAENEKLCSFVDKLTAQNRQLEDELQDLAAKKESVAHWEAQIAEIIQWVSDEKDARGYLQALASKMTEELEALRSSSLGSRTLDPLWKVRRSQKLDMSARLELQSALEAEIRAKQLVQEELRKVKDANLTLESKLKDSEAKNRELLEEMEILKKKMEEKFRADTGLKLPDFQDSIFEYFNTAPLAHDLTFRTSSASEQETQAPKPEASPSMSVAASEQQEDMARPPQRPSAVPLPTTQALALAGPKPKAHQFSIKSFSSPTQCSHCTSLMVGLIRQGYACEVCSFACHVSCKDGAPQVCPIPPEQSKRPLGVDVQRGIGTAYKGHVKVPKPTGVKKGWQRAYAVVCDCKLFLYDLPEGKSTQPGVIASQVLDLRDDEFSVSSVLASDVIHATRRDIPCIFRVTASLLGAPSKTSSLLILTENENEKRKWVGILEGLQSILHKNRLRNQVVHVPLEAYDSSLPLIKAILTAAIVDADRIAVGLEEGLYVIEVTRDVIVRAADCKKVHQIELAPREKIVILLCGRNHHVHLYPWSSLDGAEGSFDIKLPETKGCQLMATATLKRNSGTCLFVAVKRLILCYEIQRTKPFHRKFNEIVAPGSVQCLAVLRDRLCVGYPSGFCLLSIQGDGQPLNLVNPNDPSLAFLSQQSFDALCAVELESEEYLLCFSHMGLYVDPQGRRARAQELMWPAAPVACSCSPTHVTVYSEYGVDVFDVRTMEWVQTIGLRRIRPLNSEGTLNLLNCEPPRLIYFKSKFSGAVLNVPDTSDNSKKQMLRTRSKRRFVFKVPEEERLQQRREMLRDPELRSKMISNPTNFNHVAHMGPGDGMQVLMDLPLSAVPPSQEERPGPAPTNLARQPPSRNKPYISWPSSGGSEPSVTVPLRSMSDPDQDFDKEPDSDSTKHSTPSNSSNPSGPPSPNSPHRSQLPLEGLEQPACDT
With `NC(=O)c1ccc(N(C(N)=O)c2c(F)cccc2F)nc1-c1ccc(F)cc1F` the residual activity was 96.5%.
`O=c1cc(-c2cccc3c2Sc2ccccc2S3)oc(N2CCOCC2)c1` showed a residual activity of 103%.
In the case of `Nc1nc(Nc2ccc(S(N)(=O)=O)cc2)nn1C(=S)Nc1c(F)cccc1F`, the residual activity is reported as 48.1%.
In the case of `O=C1Cc2c([nH]c3ccc([N+](=O)[O-])cc23)-c2ccccc2N1`, the residual activity is reported as 83.3%.

Each molecule was assayed against DCLK2 (human) (UniProt Q8N568) in the same assay as above. Conditions: compound 0.5 µM; ATP 10 µM.
With `NC(=O)c1ccc(N(C(N)=O)c2c(F)cccc2F)nc1-c1ccc(F)cc1F` the residual activity was 97.5%.
Work on `O=c1cc(-c2cccc3c2Sc2ccccc2S3)oc(N2CCOCC2)c1` yielded a residual activity of 106%.
`Nc1nc(Nc2ccc(S(N)(=O)=O)cc2)nn1C(=S)Nc1c(F)cccc1F` showed a residual activity of 40.4%.
With `O=C1Cc2c([nH]c3ccc([N+](=O)[O-])cc23)-c2ccccc2N1` the residual activity was 105%.

What follows are molecules tested against CHUK (human) (UniProt O15111) in the same assay as above. Conditions: compound 0.5 µM; ATP 10 µM.
Molecule `NC(=O)c1ccc(N(C(N)=O)c2c(F)cccc2F)nc1-c1ccc(F)cc1F` has a residual activity of 100%.
In the case of `O=c1cc(-c2cccc3c2Sc2ccccc2S3)oc(N2CCOCC2)c1`, the residual activity is reported as 87.4%.
Work on `Nc1nc(Nc2ccc(S(N)(=O)=O)cc2)nn1C(=S)Nc1c(F)cccc1F` yielded a residual activity of 54.4%.
In the case of `O=C1Cc2c([nH]c3ccc([N+](=O)[O-])cc23)-c2ccccc2N1`, the residual activity is reported as 103%.

The molecules below were run against PLK1 (human) (UniProt P53350) in the same assay as above. Conditions: compound 0.5 µM; ATP 10 µM.
For `NC(=O)c1ccc(N(C(N)=O)c2c(F)cccc2F)nc1-c1ccc(F)cc1F`, the residual activity was 95.1%.
`O=c1cc(-c2cccc3c2Sc2ccccc2S3)oc(N2CCOCC2)c1` showed a residual activity of 102%.
`Nc1nc(Nc2ccc(S(N)(=O)=O)cc2)nn1C(=S)Nc1c(F)cccc1F` was tested, and the residual activity was 92.1%.
`O=C1Cc2c([nH]c3ccc([N+](=O)[O-])cc23)-c2ccccc2N1` gave a residual activity of 98%.

Each molecule was assayed against MAP2K2 (human) (UniProt P36507) in the same assay as above. Conditions: compound 0.5 µM; ATP 10 µM.
`NC(=O)c1ccc(N(C(N)=O)c2c(F)cccc2F)nc1-c1ccc(F)cc1F` was tested, and the residual activity was 92.3%.
`O=c1cc(-c2cccc3c2Sc2ccccc2S3)oc(N2CCOCC2)c1` gave a residual activity of 81.8%.
With `Nc1nc(Nc2ccc(S(N)(=O)=O)cc2)nn1C(=S)Nc1c(F)cccc1F` the residual activity was 96.6%.
`O=C1Cc2c([nH]c3ccc([N+](=O)[O-])cc23)-c2ccccc2N1` showed a residual activity of 92.5%.

These molecules were tested against MET (human) (UniProt P08581) in the same assay as above. Conditions: compound 0.5 µM; ATP 10 µM.
`NC(=O)c1ccc(N(C(N)=O)c2c(F)cccc2F)nc1-c1ccc(F)cc1F` showed a residual activity of 89.4%.
`O=c1cc(-c2cccc3c2Sc2ccccc2S3)oc(N2CCOCC2)c1` was tested, and the residual activity was 107%.
`Nc1nc(Nc2ccc(S(N)(=O)=O)cc2)nn1C(=S)Nc1c(F)cccc1F` showed a residual activity of 40.4%.
Molecule `O=C1Cc2c([nH]c3ccc([N+](=O)[O-])cc23)-c2ccccc2N1` has a residual activity of 117%.

Reference: the kinase profiling compilation of Christmann-Franck et al. (2016)
